In BigSolDB 2.1:

O=C(O)CCCCCC(=O)O
Conditions	solubility (mole fraction)
in THF, 298.95 K	0.191
in THF, 300.55 K	0.198
in THF, 302.15 K	0.204
in THF, 303.65 K	0.211
in THF, 305.15 K	0.218
in THF, 307.95 K	0.231
in THF, 309.05 K	0.235
in THF, 311.75 K	0.25
in THF, 313.75 K	0.259
in THF, 315.75 K	0.271
in THF, 317.75 K	0.282
in THF, 320.25 K	0.296
in THF, 321.65 K	0.306
in THF, 323.05 K	0.316
in diethyl ether, 278.95 K	0.0091
in diethyl ether, 281.95 K	0.0102
in diethyl ether, 284.65 K	0.0112
in diethyl ether, 287.05 K	0.0122
in diethyl ether, 290.05 K	0.0137
in diethyl ether, 292.95 K	0.0152
in diethyl ether, 294.75 K	0.0165
in diethyl ether, 296.35 K	0.018
in diethyl ether, 299.15 K	0.0199
in diethyl ether, 301.55 K	0.0222
in ethanol, 298.45 K	0.121
in ethanol, 301.45 K	0.131
in ethanol, 304.25 K	0.144
in ethanol, 305.75 K	0.151
in ethanol, 307.55 K	0.158
in ethanol, 310.25 K	0.172
in ethanol, 312.15 K	0.187
in ethanol, 314.85 K	0.202
in ethanol, 316.25 K	0.206
in ethanol, 317.95 K	0.219
in ethanol, 320.95 K	0.235
in ethanol, 323.55 K	0.248
in ethanol, 325.65 K	0.267
in ethanol, 327.55 K	0.281
in ethanol, 329.25 K	0.294
in methanol, 300.75 K	0.142
in methanol, 302.65 K	0.152
in methanol, 304.15 K	0.159
in methanol, 305.95 K	0.171
in methanol, 307.65 K	0.18
in methanol, 310.05 K	0.187
in methanol, 312.65 K	0.205
in methanol, 314.85 K	0.218
in methanol, 317.85 K	0.246
in methanol, 321.35 K	0.27
in methanol, 323.75 K	0.293
in methanol, 325.55 K	0.309
in methanol, 327.15 K	0.324
in methanol, 328.75 K	0.342
